Reference: patent US11571418B2, “Platinum compounds that inhibit constitutive STAT3 signaling and induce cell cycle arrest and apoptosis of malignant cells” (H. LEE MOFFITT CANCER CENTER AND RESEARCH INSTITUTE, INC., priority 2011, dated 2023)

Tests used:
B16 = test: TUNEL analysis of apoptosis; format: cell-based, mouse; details: 48 h
Source text: (§1) FIGS. 7A-7C. TUNEL analysis of PLATINUM-401-mediated apoptosis. (FIG. 7A) Normal NIH3T3 fibroblasts and their v-Src-transformed counterparts (NIH3T3/v-Src), human breast carcinoma cell lines (MDA-MB-453, MDA-MB-435, MDA-MB-468, and MDA-MB-231), human non-small cell lung cancer cell line (A549), human prostate cancer cell line (DU145), multiple myeloma 5TGM1 (mouse) and U266 (human) cell lines, mouse melanoma cell line (B16) and human pancreatic cancer cell line (Panc1) were all treated with or without PLATINUM-401 for 48 h and analyzed by TUNEL for DNA damage. For each cell line, the activated Stat3 status is indicated as (−), no constitutively-active Stat3 and (+), constitutively-active Stat3 (see FIG. 5A). Data are representative of 3 independent determinations; (FIG. 7B) Human breast cancer cell lines (MDA-MB-453, MDA-MB-468 and MDA-MB-435) were transfected with or without Stat3β or Stat3 antisense (Stat3AS), or were treated with or without Stat3 peptidomimetic inhibitor, ISS 610 (1 mM) or PLATINUM-401 (5 μM)). Forty-eight hours afterwards, cells were harvested and processed for TUNEL analysis; (FIG. 7C) The viral Src-transformed NIH3T3/v-Src fibroblasts were transfected with or without wild-type Stat3 (pRc/CMV Stat3 Flag) and treated with or without 5 μM PLATINUM-401 for 36 h. Cells were subsequently harvested for nuclear extracts preparation and Stat3 DNA-binding assay in vitro with EMSA analysis (left panel), or were processed for TUNEL analysis (right panel).
(§2) Cell proliferation and TUNEL assays—Proliferating cells were first treated with or without PLATINUM-401 for up to 48 h. A portion of cells were harvested for BrdU incorporation following the manufacturer's (BD Biosciences Pharmingen, San Diego, Calif.) instructions and analyzed by flow cytometry. Harvested cells were also analyzed for apoptosis via detection of TdT-mediated dUTP nick-end labeling (TUNEL) assay using Apoptosis Detection Systems Fluorescein according to the manufacturer's (Roche, Indianapolis, Ind.) instructions. Oligonucleotides and plasmids Transfections. The Stat3 antisense (5′-[…]-3′) (SEQ ID NO:3) or control mismatch oligonucleotides (5′-[…]-3′) (SEQ ID NO:4) were synthesized using phosphorothioate chemistry and were synthesized with 2′-Omethoxyethyl modification of the five terminal nucleotides (underlined; (Mora et al., 2002; Karras et al., 2000)) to increase stability. Transfections of Stat3AS and plasmids were carried out with Lipofectamine 2000 (LF) according to the manufacturer's instructions (Invitrogen, Carlsbad, Calif.). Briefly, cells were seeded at 1-2×10^6 cells/10-cm tissue-culture plates 18 h before transfection. Immediately before transfection, cells were washed once with PBS. Cells were transfected with luciferase reporters (4 μg) in the presence or absence of v-Src (4 μg), or were transfected with Stat3β (4 μg) or pRC/CMV Stat3 Flag (4 μg). Stat3AS transfections were carried out LF alone, or with LF/Stat3 antisense oligonucleotides, or LF/Stat3 mismatch oligonucleotides (final concentration of the oligonucleotides was 250 nM). After 2-3 h, the transfection medium was aspirated and cells washed with PBS before fresh medium added containing 10% FBS was added.
(§3) Cells were analyzed for DNA-strand breaks by TUNEL staining. […] The incidence of apoptosis correlated with the prevalence of constitutively-active Stat3 in malignant cells (FIG. 7, lower panel). […]

5TGM1 = test: TUNEL analysis of apoptosis; format: cell-based, mouse; details: 48 h
Source text: as §1, §2, §3

NIH3T3/v-Src = test: TUNEL analysis of apoptosis; format: cell-based, mouse
Source text: as §1, §2, §3

NIH3T3 = test: TUNEL analysis of apoptosis; format: cell-based, mouse; details: 48 h, no aberrant Stat3 activity
Source text: as §1, §2, §3

E2F1 = target: T1, E2F1 (Homo sapiens, UniProt Q01094); test: In vitro E2F1 DNA-binding activity assay, EMSA with DHFR promoter probe; details: cell lysates pre-incubated with compound before DHFR promoter probe
T1 construct: made in house; host or cells: Sf-9 insect cells infected with baculovirus
Procedure: FIGS. 1A-1E. Inhibition of in vitro Stat3 DNA-binding activity by a platinum complex. Nuclear extracts or cell lysates containing activated Stat1, Stat3 and Stat5, or E2F1 prepared from NIH3T3/hEGFR that are stimulated with EGF or Sf-9 insect cells that are infected with baculovirus expressing Stat1, Stat3, Stat5, or E2F1, respectively, were treated with or without the indicated concentrations of platinum complex, PLATINUM-401 or Cisplatin, for 30 min at room temperature prior to incubation with radiolabeled oligonucleotide probes, and subjected to EMSA analysis. (FIG. 1A) (i) Stat1 and Stat3 binding activities to hSIE probe, (ii) Stat1 and Stat5 binding activities to MGFe probe, and (iii) plot of % oligonucleotide probe-STAT:STAT complexes versus concentration of PLATINUM-401. […] Positions of STAT: STAT-DNA complexes in gel are labeled. In (A) to (C), the control lanes represent DMSO (vehicle)-treatment.
In control studies, the effect of PLATINUM-401 was evaluated on the DNA-binding activity of the E2F1 protein that is unrelated to STATs.

T1 sequence (Q01094 whole entry, species assumed): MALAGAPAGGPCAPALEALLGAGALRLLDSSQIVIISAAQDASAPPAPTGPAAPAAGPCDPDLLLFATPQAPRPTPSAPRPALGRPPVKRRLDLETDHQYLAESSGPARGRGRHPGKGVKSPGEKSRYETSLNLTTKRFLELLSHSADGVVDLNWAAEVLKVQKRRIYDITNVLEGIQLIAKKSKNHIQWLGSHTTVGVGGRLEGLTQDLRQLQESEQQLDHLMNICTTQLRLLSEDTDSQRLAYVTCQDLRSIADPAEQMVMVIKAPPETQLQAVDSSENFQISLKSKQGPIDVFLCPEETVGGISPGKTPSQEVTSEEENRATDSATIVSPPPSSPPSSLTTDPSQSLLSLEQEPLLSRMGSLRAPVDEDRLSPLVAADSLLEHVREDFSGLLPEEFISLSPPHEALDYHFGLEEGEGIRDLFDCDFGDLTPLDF

Structure (SMILES): CC(O)CN1CCN(CC(C)O)CC1 (stereo not drawn) [PLATINUM-401]
- TUNEL staining (B16): Significant TUNEL staining
- TUNEL staining (5TGM1): Significant TUNEL staining
- TUNEL staining (NIH3T3/v-Src; 48 h): Significant TUNEL staining
- compound-mediated apoptosis on overexpression of Stat3 (NIH3T3/v-Src; NIH3T3/v-Src transfected with wild-type Stat3, 5 μM, 36 h): minimizes the extent
- TUNEL staining (NIH3T3): no TUNEL staining
- effect on E2F1 DNA-binding activity (E2F1): no significant effect
